From BigSolDB 2.1

CC(C)=CCC[C@@H](C)[C@H]1CC[C@@]2(C)C3=C(CC[C@]12C)[C@@]1(C)CC[C@H](O)C(C)(C)[C@@H]1CC3
Conditions	solubility (mole fraction)
in DMF, 277.15 K	0.00035
in DMF, 284.65 K	0.00051
in DMF, 289.15 K	0.00063
in DMF, 294.65 K	0.00073
in DMF, 297.35 K	0.00089
in DMF, 300.15 K	0.00103
in DMF, 303.05 K	0.00138
in DMF, 308.46 K	0.00187
in DMF, 318.55 K	0.00294
in DMSO, 293.95 K	0.00015
in DMSO, 297.65 K	0.00019
in DMSO, 302.35 K	0.00024
in DMSO, 307.15 K	0.00031
in DMSO, 312.95 K	0.00042
in DMSO, 318.69 K	0.00057
in DMSO, 337.99 K	0.00136
in acetone, 278.65 K	0.00066
in acetone, 283.75 K	0.00087
in acetone, 288.45 K	0.00105
in acetone, 293.25 K	0.00127
in acetone, 298.05 K	0.00157
in acetone, 302.75 K	0.00193
in acetone, 307.55 K	0.00237
in acetone, 318.36 K	0.0036
in acetonitrile, 277.09 K	3e-05
in acetonitrile, 288.55 K	6e-05
in acetonitrile, 293.35 K	9e-05
in acetonitrile, 298.15 K	0.00013
in acetonitrile, 303.05 K	0.00015
in acetonitrile, 307.55 K	0.00019
in acetonitrile, 312.25 K	0.00026
in acetonitrile, 317.05 K	0.00038
in ethanol, 277.95 K	0.00036
in ethanol, 285.74 K	0.00053
in ethanol, 293.45 K	0.00075
in ethanol, 298.25 K	0.00092
in ethanol, 307.15 K	0.00135
in ethanol, 312.35 K	0.00168
in ethanol, 318.05 K	0.00214
in ethyl acetate, 277.67 K	0.00076
in ethyl acetate, 288.55 K	0.00127
in ethyl acetate, 293.25 K	0.00165
in ethyl acetate, 298.05 K	0.00187
in ethyl acetate, 302.85 K	0.00235
in ethyl acetate, 307.45 K	0.00284
in ethyl acetate, 318.64 K	0.00443
in isopropanol, 278.07 K	0.00047
in isopropanol, 287.81 K	0.0006
in isopropanol, 298.84 K	0.00095
in isopropanol, 307.27 K	0.00159
in methanol, 277.78 K	3e-05
in methanol, 288.15 K	5e-05
in methanol, 298.15 K	9e-05
in methanol, 303.05 K	0.00011
in methanol, 312.15 K	0.00016
in methanol, 316.95 K	0.00021
in methanol, 321.65 K	0.00032
in n-propanol, 278.07 K	0.0009
in n-propanol, 287.81 K	0.00144
in n-propanol, 298.84 K	0.00209
in n-propanol, 307.27 K	0.00304
in n-propanol, 318.93 K	0.00478
